Laboratory results published in patent US20210137118A1, “NEW USES OF 9-(3-DEOXY-BETA-D-RIBOFURANOSYL)ADENINE” (Agroquimicos De Levante, S.A., priority 2018, published 2021).

What was measured:
Anacridium aegyptium = experiment: Laboratory tests on orthoptera; assay type: in vivo
Meloidogyne incognita = experiment: In vitro test on M. incognita eggs (egg hatching, petri dishes); conditions: tested concentration 5%
Halyomorpha halys = experiment: Laboratory tests on heteroptera; assay type: in vivo

Compound: Nc1ncnc2c1ncn2[C@@H]1O[C@H](CO)C[C@H]1O [9-(3-Deoxy-β-D-ribofuranosyl)adenine]
- effect on adult forms of orthoptera (Anacridium aegyptium) (Anacridium aegyptium): no significant effect
- action on free larvae included in the ovisacs (Meloidogyne incognita): good action
- effect on egg embryogenesis (Meloidogyne incognita): inhibition of egg embryogenesis
- effect on adult forms of heteroptera (Halyomorpha halys) (Halyomorpha halys): no significant effect
